pIC50: −log10 of the molar value.

This experiment addresses human URAT1 (Homo sapiens (Human), UniProt Q96S37). The experiment in a line: Test for uric acid transport inhibition using human URAT1 expression cell. Format: cell-based. The settings on record: human URAT1 stable expression CHO cell; 14C-labeled uric acid 38 μM final concentration; incorporation at room temperature for 5 minutes; 100% window defined with benzbromarone 100 μM; read-out: URAT1 Inhibitory Activity (IC50). Here is the method:
In this Example, it was evaluated whether the Example compound has the URAT1 inhibitory activity.
Human URAT1 full-length cDNA was introduced to an expression vector pcDNA5/FRT/V5-His TOPO (registered trademark) (Invitrogen Corporation). The obtained expression plasmid was introduced to Chinese hamster ovary cell (hereinafter referred to as the CHO cell) by the liposome method using Lipofectamine LTX (Invitrogen), and cultured in a selection medium including hygromycin, whereby to prepare human URAT1 stable expression cell.
The human URAT1 expression CHO cell was cultured using D-MEM/F-12 (1:1) mixed medium including 10% bovine fetal serum and hygromycin at 37° C. in the presence of 5% CO2. The cells were seeded onto a 96 well plate (Corning Incorporated) in 0.8×10^5 cells/well, and after 24 hours, the test for uric acid transport inhibition below was performed.
The medium was removed by aspiration, and then the cells were washed once with an assay buffer including 125 mM of sodium gluconate, 4.8 mM of potassium gluconate, 1.2 mM of potassium dihydrogen phosphate, 1.2 mM of magnesium sulfate, 1.3 mM of calcium gluconate and 5.6 mM of glucose. 50 μL assay buffer including the test compound in various concentrations was added, and further 50 μL assay buffer including a radioactive ligand (uric acid labeled with ^14C; 38 μM final concentration) was added, and incorporation reaction was performed at room temperature for 5 minutes. Immediately after completion of the reaction, the reaction mixture was washed twice with 100 μL ice-cold assay buffer, and 100 μL of 0.1 N sodium hydroxide was added. The reaction mixture was stirred to lyse the cells, and 4 mL Hionic-Fluor (Packard BioScience CO) was added, and then the radioactivity was measured with a liquid scintillation counter (Beckman Coulter, Inc. and Packard BioScience CO).
The radioactivity when each concentration of the test compound was added (uric acid incorporation activity, %) was calculated in which the difference of the radioactivity when the test compound was not added (DMSO added), and the radioactivity when a positive control compound, benzbromarone (known URAT1 inhibitor) was added in 100 μM, was taken as 100%, and the concentration of the test compound when the uric acid incorporation activity was inhibited to 50% (IC50) was obtained.

Sequence of human URAT1 (Q96S37 whole entry): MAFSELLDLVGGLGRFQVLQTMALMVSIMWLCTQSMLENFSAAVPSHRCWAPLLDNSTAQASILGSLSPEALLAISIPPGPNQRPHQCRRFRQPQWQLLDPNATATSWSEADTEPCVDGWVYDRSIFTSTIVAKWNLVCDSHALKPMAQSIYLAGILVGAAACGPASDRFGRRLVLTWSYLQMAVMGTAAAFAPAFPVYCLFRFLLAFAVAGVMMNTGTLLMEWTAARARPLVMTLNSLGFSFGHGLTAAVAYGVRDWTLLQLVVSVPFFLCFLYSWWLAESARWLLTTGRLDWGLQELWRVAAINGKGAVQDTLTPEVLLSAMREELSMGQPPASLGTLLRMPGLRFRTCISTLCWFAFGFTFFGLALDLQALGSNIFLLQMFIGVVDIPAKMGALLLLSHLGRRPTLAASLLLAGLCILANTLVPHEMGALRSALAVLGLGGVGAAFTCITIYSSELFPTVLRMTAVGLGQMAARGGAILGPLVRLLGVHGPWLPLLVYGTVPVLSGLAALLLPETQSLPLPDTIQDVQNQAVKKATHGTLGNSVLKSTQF

`Cc1nn(Cc2c(Cl)cccc2Cl)c2cc(C(=O)O)ccc12` [Example 119, 1-(2,6-dichlorobenzyl)-3-methyl-1H-indazole-6-carboxylic acid]: the pIC50 is 7.19.

On to `Cc1nn(Cc2cccc(Cl)c2Cl)c2cc(-c3nnn[nH]3)cnc12` [Example 158, 1-(2,3-dichlorobenzyl)-3-methyl-6-(1H-tetrazole-5-yl)-1H-pyrazolo[4,3-b]pyridine], for which the pIC50 is 6.53.

Consider `CCc1nn(Cc2c(Cl)cccc2Cl)c2cc(C(=O)O)cnc12` [Example 167, 1-(2,6-dichlorobenzyl)-3-ethyl-1H-pyrazolo[4,3-b]pyridine-6-carboxylic acid], for which the negative-log IC50 (pIC50) is 7.10.

For the molecule `Cc1cn(Cc2c(Cl)cccc2Cl)c2cc(CC(=O)O)ccc12` [Example 82, 2-[1-(2,6-dichlorobenzyl)-3-methyl-1H-indole-6-yl]acetic acid], the pIC50 is 7.82.

With `O=C(O)c1cnc2c(Cl)nn(Cc3c(Cl)cccc3Cl)c2c1` [Example 172, 3-chloro-1-(2,6-dichlorobenzyl)-1H-pyrazolo[4,3-b]pyridine-6-carboxylic acid], the pIC50 is 6.79.

With `Cc1cccc(Cl)c1Cn1nc(C)c2ccc(CC(=O)O)cc21` [Example 102, 2-[1-(2-chloro-6-methylbenzyl)-3-methyl-1H-indazole-6-yl]acetic acid], the pIC50 was 7.28.

Turning to `Cc1nn(Cc2c(Cl)cccc2Cl)c2cc(CC(=O)O)ccc12` [Example 97, 2-[1-(2,6-dichlorobenzyl)-3-methyl-1H-indazole-6-yl]acetic acid], the pIC50 is 7.74.

As for `Cc1nn(Cc2c(Cl)cccc2Cl)c2cc(CCC(N)=O)ccc12` [Example 132, 3-[1-(2,6-dichlorobenzyl)-3-methyl-1H-indazole-6-yl]propionamide], the pIC50 was 6.73.

Regarding `Cc1nn(Cc2c(Cl)cccc2Cl)c2cc(Cc3n[nH]c(=S)o3)ccc12` [Example 137, 5-{[1-(2,6-dichlorobenzyl)-3-methyl-1H-indazole-6-yl]methyl}-1,3,4-oxadiazol-2(3H)-thione], the negative logarithm of the IC50 (pIC50) was 8.00.

With `CCc1nn(Cc2c(C)cccc2Cl)c2cc(C(=O)O)cnc12` [Example 170, 1-(2-chloro-6-methylbenzyl)-3-ethyl-1H-pyrazolo[4,3-b]pyridine-6-carboxylic acid], the negative logarithm of the IC50 (pIC50) is 7.10.

As for `Cc1cccc(C)c1CN1CC(C)c2ccc(CC(=O)O)cc21` (centres unmarked) [Example 78, (3-RS)-2-[1-(2,6-dimethylbenzyl)-2,3-dihydro-3-methyl-1H-indole-6-yl]acetic acid], the pIC50 is 7.62.

Regarding `Cc1nn(Cc2csc3ccc(Cl)cc23)c2cc(CCC(=O)O)ccc12` [Example 124, 3-{1-[(5-chlorobenzo[b]thiophene-3-yl)methyl]-3-methyl-1H-indazole-6-yl}propionic acid], the pIC50 was 7.51.

For `Cc1nn(Cc2c(Cl)cccc2Cl)c2cc(C(=O)CCC(=O)O)ccc12` [Example 130, 4-[1-(2,6-dichlorobenzyl)-3-methyl-1H-indazole-6-yl]-4-oxobutyric acid], the pIC50 was 7.17.

With `Cc1cccc(Cl)c1Cn1nc(C)c2ncc(-c3nnn[nH]3)cc21` [Example 160, 1-(2-chloro-6-methylbenzyl)-3-methyl-6-(1H-tetrazole-5-yl)-1H-pyrazolo[4,3-b]pyridine], the negative-log IC50 (pIC50) is 6.91.

Consider `CCc1nn(Cc2c(Cl)cccc2Cl)c2cc(-c3nnn[nH]3)ccc12` [Example 182, 1-(2,6-dichlorobenzyl)-3-ethyl-6-(1H-tetrazole-5-yl)-1H-indazole], for which the negative-log IC50 (pIC50) was 7.28.

`Cc1nn(Cc2c(Cl)cccc2C2CC2)c2cc(-c3nnn[nH]3)cnc12` [Example 164, 1-(2-chloro-6-cyclopropylbenzyl)-3-methyl-6-(1H-tetrazole-5-yl)-1H-pyrazolo[4,3-b]pyridine]: the pIC50 is 7.26.

In the case of `CCc1nn(Cc2c(Cl)cccc2Cl)c2cc(CCC(=O)O)ccc12` [Example 145, 3-[1-(2,6-dichlorobenzyl)-3-ethyl-1H-indazole-6-yl]propionic acid], the pIC50 is 7.59.

Regarding `Cc1ccc(C)c(Cn2cc(C)c3ccc(CC(=O)O)cc32)c1` [Example 85, 2-[1-(2,5-dimethylbenzyl)-3-methyl-1H-indole-6-yl]acetic acid], the negative logarithm of the IC50 (pIC50) is 7.20.

Consider `Cc1cccc(C)c1Cn1cc(C(C)C)c2ccc(C(=O)O)cc21` [Example 92, 1-(2,6-dimethylbenzyl)-3-isopropyl-1H-indole-6-carboxylic acid], for which the pIC50 is 7.15.

As for `Cc1nn(Cc2cccc3cccnc23)c2cc(CC(=O)O)ccc12` [Example 115, 2-[3-methyl-1-(quinoline-8-ylmethyl)-1H-indazole-6-yl]acetic acid], the negative logarithm of the IC50 (pIC50) is 6.40.

For `Cc1nn(Cc2c(Cl)cccc2C2CC2)c2cc(CCC(=O)O)ccc12` [Example 185, 3-[1-(2-chloro-6-cyclopropylbenzyl)-3-methyl-1H-indazole-6-yl]propionic acid], the pIC50 was 7.77.

Regarding `Cc1cccc(C)c1Cn1cc(C)c2ccc(C(=O)O)cc21` [Example 61, 1-(2,6-dimethylbenzyl)-3-methyl-1H-indole-6-carboxylic acid], the negative-log IC50 (pIC50) is 7.34.

Regarding `Cc1cccc(C)c1Cn1nc(C)c2ccc(CCC(=O)O)cc21` [Example 121, 3-[1-(2,6-dimethylbenzyl)-3-methyl-1H-indazole-6-yl]propionic acid], the negative logarithm of the IC50 (pIC50) is 7.39.

As for `CCc1nn(Cc2c(Cl)cccc2Cl)c2cc(C(=O)O)ccc12` [Example 144, 1-(2,6-dichlorobenzyl)-3-ethyl-1H-indazole-6-carboxylic acid], the pIC50 is 7.38.

As for `Cc1nn(Cc2c(Cl)cccc2Cl)c2cc(CCCC(=O)O)ccc12` [Example 133, 4-[1-(2,6-dichlorobenzyl)-3-methyl-1H-indazole-6-yl]butyric acid], the negative-log IC50 (pIC50) is 7.80.

In the case of `Cc1nn(Cc2cccc(Cl)c2Cl)c2cc(C(=O)O)ccc12` [Example 120, 1-(2,3-dichlorobenzyl)-3-methyl-1H-indazole-6-carboxylic acid], the pIC50 is 7.04.

In the case of `Cc1cccc(C)c1Cn1nc(Cl)c2ccc(C(=O)O)cc21` [Example 149, 3-chloro-1-(2,6-dimethylbenzyl)-1H-indazole-6-carboxylic acid], the pIC50 is 7.28.

On to `CCc1nn(Cc2c(Cl)cccc2Cl)c2cc(-c3nnn[nH]3)cnc12` [Example 171, 1-(2,6-dichlorobenzyl)-3-ethyl-6-(1H-tetrazole-5-yl)-1H-pyrazolo[4,3-b]pyridine], for which the negative logarithm of the IC50 (pIC50) was 7.28.

Take `Cc1nn(Cc2c(Cl)cccc2Cl)c2cc(Cc3n[nH]c(=O)o3)ccc12` [Example 136, 5-{[1-(2,6-dichlorobenzyl)-3-methyl-1H-indazole-6-yl]methyl}-1,3,4-oxadiazol-2(3H)-one]: the pIC50 is 7.47.

`Cc1nn(Cc2c(Cl)cccc2Cl)c2cc(-c3nnn[nH]3)cnc12` [Example 156, 1-(2,6-dichlorobenzyl)-3-methyl-6-(1H-tetrazole-5-yl)-1H-pyrazolo[4,3-b]pyridine]: the pIC50 was 6.36.

Regarding `Cc1nn(Cc2c(Cl)cccc2Cl)c2cc(C(F)(F)C(=O)O)ccc12` [Example 183, [1-(2,6-dichlorobenzyl)-3-methyl-1H-indazole-6-yl]difluoroacetic acid], the pIC50 is 7.82.

`Cc1cn(Cc2ccccc2Cl)c2cc(CC(=O)O)ccc12` [Example 87, 2-[1-(2-chlorobenzyl)-3-methyl-1H-indole-6-yl]acetic acid]: the pIC50 is 7.06.

With `Cc1cccc(C)c1CN1CCc2ccc(CC(=O)O)cc21` [Example 75, 2-[1-(2,6-dimethylbenzyl)-2,3-dihydro-1H-indole-6-yl]acetic acid], the pIC50 was 7.11.

For the molecule `Cc1cccc(Cl)c1Cn1nc(Cl)c2ncc(C(=O)O)cc21` [Example 174, 3-chloro-1-(2-chloro-6-methylbenzyl)-1H-pyrazolo[4,3-b]pyridine-6-carboxylic acid], the negative-log IC50 (pIC50) was 6.83.

As to `O=C(O)Cc1ccc2c(C3CC3)nn(Cc3c(Cl)cccc3Cl)c2c1` [Example 148, 2-[3-cyclopropyl-1-(2,6-dichlorobenzyl)-1H-indazole-6-yl]acetic acid], the negative-log IC50 (pIC50) is 7.31.

Turning to `Cc1cn(Cc2cccc(Cl)c2Cl)c2cc(CC(=O)O)ccc12` [Example 84, 2-[1-(2,3-dichlorobenzyl)-3-methyl-1H-indole-6-yl]acetic acid], the pIC50 was 7.28.

`Cc1nn(Cc2c(Cl)cccc2C#N)c2cc(CC(=O)O)ccc12` [Example 109, 2-[1-(2-chloro-6-cyanobenzyl)-3-methyl-1H-indazole-6-yl]acetic acid]: the pIC50 is 6.47.

In the case of `Cc1nn(Cc2cccc(Cl)c2Cl)c2cc(CC(=O)O)ccc12` [Example 99, 2-[1-(2,3-dichlorobenzyl)-3-methyl-1H-indazole-6-yl]acetic acid], the negative-log IC50 (pIC50) was 7.39.

These data come from patent US8987473B2, “Ring-fused compound” (Sato Pharmaceutical Co., Ltd., priority 2011, dated 2015).
